# Paper PMC7126094 (Bioorganic & Medicinal Chemistry Letters, 2019)
# “Also recorded” adds a separate entry of the source. Where two headings read alike, the source gives them in different places.
# Experiments:
# [1] = test system: CHO-K1: Chinese hamster ovary cell line
# [2] = test system: NIH 3T3: mouse embryonic fibroblast cell line
# hERG = hERG (Homo sapiens, UniProt Q12809); assay: hERG binding assay
# in vitro = details: African green monkey
# [3] = rat, microsomes
# [4] = test system: VERO: African green monkey kidney cell line
# [5] = human, microsomes
# [6] = test system: HFL-1: human embryonic lung cell line
# [7] = test system: L929: mouse fibroblast cell line
# [8] = mouse, microsomes
# hERG, sequence (Q12809 whole entry): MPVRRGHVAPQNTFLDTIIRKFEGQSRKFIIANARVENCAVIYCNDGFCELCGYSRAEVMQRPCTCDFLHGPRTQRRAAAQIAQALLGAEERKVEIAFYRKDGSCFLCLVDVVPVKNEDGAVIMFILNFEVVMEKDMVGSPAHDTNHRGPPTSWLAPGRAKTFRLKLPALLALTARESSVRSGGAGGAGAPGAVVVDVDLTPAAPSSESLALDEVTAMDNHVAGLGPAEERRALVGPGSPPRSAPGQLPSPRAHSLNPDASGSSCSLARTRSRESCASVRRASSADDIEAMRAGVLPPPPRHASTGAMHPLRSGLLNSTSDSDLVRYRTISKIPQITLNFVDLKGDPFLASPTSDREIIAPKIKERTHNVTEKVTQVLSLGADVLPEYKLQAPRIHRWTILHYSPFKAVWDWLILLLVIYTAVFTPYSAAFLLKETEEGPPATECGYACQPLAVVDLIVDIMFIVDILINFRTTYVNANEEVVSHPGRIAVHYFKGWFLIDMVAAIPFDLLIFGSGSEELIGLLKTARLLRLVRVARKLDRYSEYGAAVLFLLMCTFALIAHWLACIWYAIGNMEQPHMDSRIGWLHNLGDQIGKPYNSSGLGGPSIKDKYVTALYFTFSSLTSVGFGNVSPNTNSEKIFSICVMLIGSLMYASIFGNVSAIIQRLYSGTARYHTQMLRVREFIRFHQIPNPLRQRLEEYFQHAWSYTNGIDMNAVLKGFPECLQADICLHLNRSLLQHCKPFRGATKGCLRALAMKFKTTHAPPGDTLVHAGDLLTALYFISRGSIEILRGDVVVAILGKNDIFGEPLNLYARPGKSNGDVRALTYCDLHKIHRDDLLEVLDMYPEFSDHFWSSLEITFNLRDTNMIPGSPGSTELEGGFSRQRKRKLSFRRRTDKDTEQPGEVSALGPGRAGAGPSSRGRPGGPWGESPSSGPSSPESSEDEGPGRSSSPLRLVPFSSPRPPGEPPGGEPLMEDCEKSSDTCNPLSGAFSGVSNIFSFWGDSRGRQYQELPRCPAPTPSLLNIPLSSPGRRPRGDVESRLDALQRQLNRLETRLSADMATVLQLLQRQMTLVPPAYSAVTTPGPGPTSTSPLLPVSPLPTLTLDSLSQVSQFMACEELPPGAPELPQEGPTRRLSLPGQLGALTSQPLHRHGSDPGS
compound,measurement,setting,value
"5,6,8-Tichloro-2-((2,4-difluorophenyl)amino)-3-isobutyrylquinolin-4(1H)-one [Compound 6y]",IC50,MERS-CoV; read-out: IC50 (MERS-CoV inhibitory activity),0.129 ± 0.026 µM
"CC(=O)c1c(NC(C)C)[nH]c2c(C(C)C)cccc2c1=O [Compound 6a, 3-Aetyl-8-isopropyl-2-(isopropylamino)quinolin-4(1H)-one]",inhibitory effect on MERS-CoV (in words),MERS-CoV,no inhibitory effects
"CC(=O)c1c(N2CCCCC2)[nH]c2c(F)cc(F)cc2c1=O [Compound 6i, 3-Acetyl-6,8-difluoro-2-(piperidin-1-yl)quinolin-4(1H)-one]",inhibitory effect on MERS-CoV (in words),MERS-CoV,no inhibitory effect
"CC(=O)c1c(NC(C)C)[nH]c2c(C)cc(C)cc2c1=O [Compound 6b, 3-Aetyl-2-(isopropylamino)-6,8-dimethylquinolin-4(1H)-one]",inhibitory effect on MERS-CoV (in words),MERS-CoV,no inhibitory effects
"COc1ccc(Nc2[nH]c3c(F)cc(F)cc3c(=O)c2C(C)=O)cc1 [Compound 6q, 3-Acetyl-6,8-difluoro-2-((4-methoxyphenyl)amino)quinolin-4(1H)-one]",inhibitory effect on MERS-CoV (in words),MERS-CoV,no inhibitory effects
"COc1cccc(Nc2[nH]c3c(F)cc(F)cc3c(=O)c2C(C)=O)c1 [Compound 6p, 3-Acetyl-6,8-difluoro-2-((3-methoxyphenyl)amino)quinolin-4(1H)-one]",inhibitory effect on MERS-CoV (in words),MERS-CoV,no inhibitory effects
"CC(C)C(=O)c1c(Nc2ccc(F)c(F)c2F)[nH]c2c(F)cc(F)cc2c1=O [Compound 6u, 6,8-Difluoro-3-isobutyryl-2-((2,3,4-trifluorophenyl)amino)quinolin-4(1H)-one]",cytotoxicity (in words),[1],no cytotoxicity
same,cytotoxicity (in words),[2],no cytotoxicity
same,hERG binding affinity (in words),hERG,low hERG binding affinity
same,IC50,in vitro,86.1 µM
same,metabolic stability (in words),[3],good metabolic stability
same,cytotoxicity (in words),[4],no cytotoxicity
same,metabolic stability (in words),[5],good metabolic stability
same,cytotoxicity (in words),[6],no cytotoxicity
same,cytotoxicity (in words),[7],no cytotoxicity
same,metabolic stability (in words),[8],good metabolic stability
"CCCCNc1[nH]c2c(F)cc(F)cc2c(=O)c1C(C)=O [Compound 6k, 3-Acetyl-2-(butylamino)-6,8-difluoroquinolin-4(1H)-one]",inhibitory effect on MERS-CoV (in words),MERS-CoV,no inhibitory effect
"CC(=O)c1c(N2CCOCC2)[nH]c2c(F)cc(F)cc2c1=O [Compound 6j, 3-Acetyl-6,8-difluoro-2-morpholinoquinolin-4(1H)-one]",inhibitory effect on MERS-CoV (in words),MERS-CoV,no inhibitory effect
"CC(C)Nc1[nH]c2c(C(F)(F)F)cc(Cl)cc2c(=O)c1C(=O)c1ccccc1 [Compound 6c, 3-Bnzoyl-6-chloro-2-(isopropylamino)-8-(trifluoromethyl)quinolin-4(1H)-one]",inhibitory effect on MERS-CoV (in words),MERS-CoV,detrimental for inhibitory effect; also recorded: completely abolished activity
